Source: PubChem BioAssay (NCI)
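Dose response: 5 concentrations. Exposure: 48 h. Format: 96-well plates. Endpoint: linear interpolation; highest concentration if not reached. TGI: concentration producing complete growth inhibition.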

How the values were obtained:
Test in all cases: DTP human tumour cell line panel, 48 h
[1] = test system: DU-145 prostate
[2] = test system: A498 renal
[3] = test system: CAKI-1 renal
[4] = test system: CCRF-CEM leukemia
[5] = test system: COLO 205 colon
[6] = test system: HOP-92 NSCLC
[7] = test system: HOP-62 NSCLC
[8] = test system: SK-MEL-28 melanoma
[9] = test system: SK-OV-3 ovarian
[10] = test system: OVCAR-8 ovarian
[11] = test system: NCI-H23 lung
[12] = test system: NCI-H460 lung
[13] = test system: SW-620 colon
[14] = test system: LOX IMVI melanoma
[15] = test system: HCT-15 colon
[16] = test system: MCF7 breast
[17] = test system: IGROV1 ovarian
[18] = test system: U251 CNS
[19] = test system: SNB-19 CNS
[20] = test system: OVCAR-4 ovarian

Row | SMILES | TGI [1] [µM] | TGI [2] [µM] | TGI [3] [µM] | TGI [4] [µM] | TGI [5] [µM] | TGI [6] [µM] | TGI [7] [µM] | TGI [8] [µM] | TGI [9] [µM] | TGI [10] [µM] | TGI [11] [µM] | TGI [12] [µM] | TGI [13] [µM] | TGI [14] [µM] | TGI [15] [µM] | TGI [16] [µM] | TGI [17] [µM] | TGI [18] [µM] | TGI [19] [µM] | TGI [20] [µM]
1 | COCc1cc2c(cc1/C(=C/[N+](=O)[O-])CS(=O)(=O)c1ccccc1)OCO2 | > 100 | > 100 | > 100 | > 100 | > 100 | > 100 | > 100 | > 100 | > 100 | > 100 | > 100 | > 100 | > 100 | > 100 | > 100 | > 100 | > 100 | > 100 | – | –
2 | O=C1C(Cl)=C(N2C(=O)CCCC2=O)C(=O)c2ccccc21 | 30.2 | 33.4 | 27.2 | 23.3 | 19.1 | 9.29 | > 100 | 33.4 | > 100 | 23.9 | 36 | 27.8 | 48.3 | 42.4 | 25.6 | 52.1 | 30.1 | 66.1 | – | –
3 | Cc1cccc(/C=C2\CCCc3ccccc3C2=O)c1 | > 100 | – | > 100 | 35.1 | 35.8 | 58.5 | 99.4 | 59 | > 100 | 78.3 | 79.8 | 36.5 | 30.7 | 37 | 44.9 | 56.2 | 59.6 | 48.5 | 90.3 | 47.7
4 | COc1ccc(N=C2C(=Nc3ccc(OC)cc3)N(S(=O)(=O)c3ccccc3)C(=S)N2c2ccccc2)cc1 | > 100 | – | > 100 | – | > 100 | > 100 | > 100 | > 100 | > 100 | > 100 | > 100 | > 100 | > 100 | – | > 100 | > 100 | > 100 | > 100 | > 100 | –
5 | O=C(CCCN1CCC2(CC1)NC(=O)c1ccccc1O2)c1ccc(F)cc1 | > 100 | – | > 100 | > 100 | > 100 | > 100 | > 100 | > 100 | > 100 | > 100 | > 100 | > 100 | > 100 | > 100 | > 100 | > 100 | > 100 | > 100 | – | > 100
6 | O=C(NNc1ccnc2cc(Cl)ccc12)/C(=C\c1ccccc1Cl)NC(=O)c1ccccc1 | > 100 | – | > 100 | > 100 | 81.8 | > 100 | 48.6 | > 100 | > 100 | 43.5 | > 100 | > 100 | > 100 | 32 | > 100 | 46.1 | > 100 | 34 | > 100 | > 100
7 | CCOC(=O)C(C)(C(=O)OCC)/C(Cl)=C\Cl | > 100 | – | > 100 | > 100 | > 100 | > 100 | > 100 | > 100 | > 100 | > 100 | > 100 | > 100 | > 100 | > 100 | – | > 100 | > 100 | – | > 100 | > 100
